What was measured:
[1] = comparison value for Gd-DTPA, literature references; cited from earlier work
U87MG cells = experiment: Cytotoxicity study, MTT assay with 2.5 mM Ca(II); assay type: cell-based, human; conditions: 24 h
Method: Gd@C-dots were also subjected to a cytotoxicity study with U87MG cells using standard MTT assays. The cells were first seeded in 96-well plates (1×10^4 cells per well). After 24 h, Gd@C-dots at different concentrations were added. Incubation was carried out for 24 h with or without 2.5 mM CaCl2. To assess the particles' stability against transmetallation, which is the major cause of toxicity for conventional Gd contrast agents (Corot et al., J. Magn. Reson. Imaging 1998, 8(3):695-702), 2.5 mM Ca(II) was added into the incubation medium.

For `CNC[C@H](O)[C@@H](O)[C@H](O)[C@H](O)CO.CNC[C@H](O)[C@@H](O)[C@H](O)[C@H](O)CO.O=C([O-])CN(CCN(CC(=O)[O-])CC(=O)O)CCN(CC(=O)[O-])CC(=O)O.[Gd+3]` [Gd-DTPA, gadopentetic acid], the r1 relaxivity [1] is listed as 3.10 mM⁻¹ s⁻¹ and the “IC50 (cell death)” value (U87MG cells) is listed as 33.1 µg/mL.
